According to US20150080438A1, “6,7-Dihydro-5H-benzo[7]annulene derivatives, processes for their preparation, pharmaceutical products comprising them and their use for preparing medicaments” (Bayer Intellectual Property GmbH, priority 2011, published 2015):

Tests used:
[1] = system: uterus growth induced by 17β-estradiol; assay: Anti-uterus growth test in the adult rat; format: in vivo; conditions: ovariectomized adult rat, percentage inhibition of uterus growth; for Anti-oestrogenic activity in vivo in % at a dose of 1 mg/kg (rat): 1 mg/kg s.c. d1-d3 with 1.5 μg/kg/day 17β-estradiol; for inhibition in vivo at 0.3 mg/kg: sc, 0.3 mg/kg s.c. d1-d3 with 1.5 μg/kg/day 17β-estradiol, read-out: Anti-oestrogenic activity in vivo in % at a dose of 0.3 mg/kg (rat)
From the text: The uterus of oestrogen-substituted rats can be used as a test model for detecting a direct action of substances with anti-oestrogenic properties. The parameter of oestrogenic action is estradiol-induced uterus growth in rats, which is inhibited by simultaneous administration of a substance with anti-oestrogenic action. The experimental animals (n=5-6 animals/group) were ovariectomized before the start of the test, to rule out the influence of endogenous oestrogens. After a phase of 6 to 10 days, the test substances are administered s.c. on 3 consecutive days (d1-d3) in combination with a substitution dose of 1.5 μg/kg/day of 17β-estradiol. 17β-estradiol alone serves as positive control, and the excipients serve as negative control. On day 4 (d4) the animals are killed, and the uteri and vaginae are removed and weighed. The organ weights are converted to mg/100 g body weight, then the mean value and the standard deviation are calculated for each dosage. The inhibition of uterus or vaginal growth induced by 17β-estradiol is shown as percentage inhibition. The selected claimed substances were investigated in adult female rats as described for their anti-oestrogenic, inhibitory action on the weight of the uterus. At the dosage used, the substances show a marked anti-oestrogenic action in vivo (Table 3 and Table 4).

oestrogen receptor (ER) = molecular target: T1, oestrogen receptor (ER) (Homo sapiens, UniProt P03372); assay: Anti-oestrogenic action in MVLN cells (inhibition of estradiol-induced luciferase, transactivation antagonism); format: cell-based; conditions: inhibition of estradiol-induced luciferase activity, read-out: Anti-oestrogenic action in vitro: MVLN transactivation antagonism IC50
T1 construct: These MVLN cells express, along with the functional oestrogen receptor (ER), a reporter construct; endogenous in cells; host or cells: MVLN cells (MCF7 derivative with ER-responsive luciferase reporter)
T1 sequence (P03372 1-595): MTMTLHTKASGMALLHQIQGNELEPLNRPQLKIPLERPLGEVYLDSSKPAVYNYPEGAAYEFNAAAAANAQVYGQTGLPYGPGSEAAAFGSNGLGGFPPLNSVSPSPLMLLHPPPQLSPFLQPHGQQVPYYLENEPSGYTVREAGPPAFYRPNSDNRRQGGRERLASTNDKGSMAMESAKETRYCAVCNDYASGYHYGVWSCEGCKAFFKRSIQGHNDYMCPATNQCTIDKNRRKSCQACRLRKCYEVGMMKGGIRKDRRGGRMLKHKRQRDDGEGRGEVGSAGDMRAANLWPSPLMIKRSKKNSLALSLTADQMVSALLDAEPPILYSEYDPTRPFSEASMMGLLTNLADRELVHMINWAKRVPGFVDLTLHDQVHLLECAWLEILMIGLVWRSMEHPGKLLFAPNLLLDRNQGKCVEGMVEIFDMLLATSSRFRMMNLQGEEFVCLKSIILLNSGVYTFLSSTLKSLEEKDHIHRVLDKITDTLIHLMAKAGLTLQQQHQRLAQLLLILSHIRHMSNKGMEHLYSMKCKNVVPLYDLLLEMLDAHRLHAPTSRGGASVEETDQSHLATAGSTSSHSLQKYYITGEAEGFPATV
Method in brief: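 MCF7-derived MVLN cells carrying an ER-driven luciferase reporter; test compounds applied with estradiol, and anti-oestrogenic action scored as inhibition of the estradiol-induced luciferase signal.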

Row | SMILES | Anti-oestrogenic activity in vivo in % at a dose of 1 mg/kg (rat) [1] [%] | inhibition in vivo at 0.3 mg/kg [1] [%] | IC50 (oestrogen receptor (ER)) [nM]
1 | CN(CCCCCC1=C(c2cccc(O)c2)CCCc2cc(O)ccc21)CCCC[S+]([O-])CCCC(F)(F)C(F)(F)F (racemic) [Example 6, 8-(3-Hydroxyphenyl)-9-[5-(methyl{4-[(RS)-(4,4,5,5,5-pentafluoropentyl)sulphinyl]butyl}amino)pentyl]-6,7-dihydro-5H-benzo[7]annulen-3-ol] | 64 | 22 | 4
2 | CN(CCCCCCC1=C(c2cccc(S(C)(=O)=O)c2)CCCc2cc(O)ccc21)CCC[S+]([O-])CCCC(F)(F)C(F)(F)F (racemic) [Example 21, 8-(3-Mesylphenyl)-9-[6-(methyl{3-[(RS)-(4,4,5,5,5-pentafluoropentyl)sulphinyl]propyl}amino)hexyl]-6,7-dihydro-5H-benzo[7]annulen-3-ol] | – | 37 | 5
3 | CN(CCCCCC1=C(c2ccc(O)c(F)c2)CCCc2cc(O)ccc21)CCC[S+]([O-])CCCC(F)(F)C(F)(F)F (racemic) [Example 37, 8-(3-Fluoro-4-hydroxyphenyl)-9-[5-(methyl{3-[(RS)-(4,4,5,5,5-pentafluoropentyl)sulphinyl]propyl}amino)pentyl]-6,7-dihydro-5H-benzo[7]annulen-3-ol] | – | 59 | 1
4 | CN(CCCCCC1=C(c2ccc(S(C)(=O)=O)cc2)CCCc2cc(O)ccc21)CCC[S+]([O-])CCCC(F)(F)C(F)(F)F (racemic) [Example 46, 8-(4-Mesylphenyl)-9-[5-(methyl{3-[(RS)-(4,4,5,5,5-pentafluoropentyl)sulphinyl]propyl}amino)pentyl]-6,7-dihydro-5H-benzo[7]annulen-3-ol] | 31 | – | 14
5 | CN(CCCCCCC1=C(c2ccccc2)CCCc2cc(O)ccc21)CCC[S+]([O-])CCCC(F)(F)C(F)(F)F (racemic) [Example 64, 9-[6-(Methyl{3-[(RS)-(4,4,5,5,5-pentafluoropentyl)sulphinyl]propyl}amino)hexyl]-8-phenyl-6,7-dihydro-5H-benzo[7]annulen-3-ol] | – | 85 | 5
6 | CN(CCCCCC1=C(c2ccccc2)CCCc2cc(O)ccc21)CCCSCCCC(F)(F)C(F)(F)F [Example 1, 9-[5-(Methyl{3-[(4,4,5,5,5-pentafluoropentyl)sulphanyl]propyl}amino)pentyl]-8-phenyl-6,7-dihydro-5H-benzo[7]annulen-3-ol] | 65 | – | 37
7 | CN(CCCCCC1=C(c2ccccc2)CCCc2cc(O)ccc21)CCCS(=O)(=O)CCCC(F)(F)C(F)(F)F [Example 3, 9-[5-(Methyl{3-[(4,4,5,5,5-pentafluoropentyl)sulphonyl]propyl}amino)pentyl]-8-phenyl-6,7-dihydro-5H-benzo[7]annulen-3-ol] | 64 | – | 15
8 | CN(CCCCCCC1=C(c2cccc(O)c2)CCCc2cc(O)ccc21)CCCS(=O)(=O)CCCC(F)(F)C(F)(F)F [Example 13, 8-(3-Hydroxyphenyl)-9-[6-(methyl{3-[(4,4,5,5,5-pentafluoropentyl)sulphonyl]propyl}amino)hexyl]-6,7-dihydro-5H-benzo[7]annulen-3-ol] | – | 79 | 3
9 | CN(CCCCCCC1=C(c2ccc(F)c(O)c2)CCCc2c1ccc(O)c2F)CCCS(=O)(=O)CCCC(F)(F)C(F)(F)F [Example 114, 4-Fluoro-8-(4-fluoro-3-hydroxyphenyl)-9-[6-(methyl{3-[(4,4,5,5,5-pentafluoropentyl)sulphonyl]propyl}amino)hexyl]-6,7-dihydro-5H-benzo[7]annulen-3-ol] | – | – | 20
10 | O=S(=O)(CCCN(CCO)CCCCCCC1=C(c2ccc(F)c(O)c2)CCCc2c1ccc(O)c2F)CCCC(F)(F)C(F)(F)F [Example 115, 4-Fluoro-8-(4-fluoro-3-hydroxyphenyl)-9-{6-[(2-hydroxyethyl){3-[(4,4,5,5,5-pentafluoropentyl)sulphonyl]propyl}amino]hexyl}-6,7-dihydro-5H-benzo[7]annulen-3-ol] | – | – | 12
11 | CN(CCCCCCC1=C(c2ccc(F)c(O)c2)CCCc2c1ccc(O)c2F)CCCS(=O)(=O)CCC(F)(F)C(F)(F)F [Example 116, 4-Fluoro-8-(4-fluoro-3-hydroxyphenyl)-9-[6-(methyl{3-[(3,3,4,4,4-pentafluorobutyl)sulphonyl]propyl}amino)hexyl]-6,7-dihydro-5H-benzo[7]annulen-3-ol] | – | – | 34
12 | CN(CCCCCCC1=C(c2ccc(F)c(O)c2)CCCc2c1ccc(O)c2F)CCCCS(=O)(=O)CCCC(F)(F)C(F)(F)F [Example 117, 4-Fluoro-8-(4-fluoro-3-hydroxyphenyl)-9-[6-(methyl{4-[(4,4,5,5,5-pentafluoropentyl)sulphonyl]butyl}amino)hexyl]-6,7-dihydro-5H-benzo[7]annulen-3-ol] | – | – | 11
13 | CN(CCCCCCC1=C(c2ccc(F)c(O)c2)CCCc2c1ccc(O)c2F)CCCCS(=O)(=O)CCCC(F)(F)F [Example 118, 4-Fluoro-8-(4-fluoro-3-hydroxyphenyl)-9-[6-(methyl{4-[(4,4,4-trifluorobutyl)sulphonyl]butyl}amino)hexyl]-6,7-dihydro-5H-benzo[7]annulen-3-ol] | – | – | 9
14 | CN(CCCCCCC1=C(c2ccc(F)c(O)c2)CCCc2c1ccc(O)c2F)CCCCS(=O)(=O)CCC(F)(F)F [Example 119, 4-Fluoro-8-(4-fluoro-3-hydroxyphenyl)-9-[6-(methyl{4-[(3,3,3-trifluoropropyl)sulphonyl]butyl}amino)hexyl]-6,7-dihydro-5H-benzo[7]annulen-3-ol] | – | – | 7
15 | CN(CCCCCCC1=C(c2ccc(F)c(O)c2)CCCc2cc(O)c(F)cc21)CCCCS(=O)(=O)CCCC(F)(F)C(F)(F)F [Example 121, 2-Fluoro-8-(4-fluoro-3-hydroxyphenyl)-9-[6-(methyl{4-[(4,4,5,5,5-pentafluoropentyl)sulphonyl]butyl}amino)hexyl]-6,7-dihydro-5H-benzo[7]annulen-3-ol] | – | – | 7
16 | CN(CCCCCCC1=C(c2ccc(F)c(O)c2)CCCc2cc(O)c(F)cc21)CCCS(=O)(=O)CCC(F)(F)C(F)(F)F [Example 123, 2-Fluoro-8-(4-fluoro-3-hydroxyphenyl)-9-[6-(methyl{3-[(3,3,4,4,4-pentafluorobutyl)sulphonyl]propyl}amino)hexyl]-6,7-dihydro-5H-benzo[7]annulen-3-ol] | – | – | 11
17 | CN(CCCCCCC1=C(c2ccc(F)c(O)c2)CCCc2cc(O)c(F)cc21)CCCS(=O)(=O)CCC(F)(F)F [Example 126, 2-Fluoro-8-(4-fluoro-3-hydroxyphenyl)-9-[6-(methyl{3-[(3,3,3-trifluoropropyl)sulphonyl]propyl}amino)hexyl]-6,7-dihydro-5H-benzo[7]annulen-3-ol] | – | – | 32
18 | CN(CCCCCCC1=C(c2ccc(F)c(O)c2)CCCc2cc(O)c(F)cc21)CCCS(=O)(=O)CCCC(F)(F)F [Example 127, 2-Fluoro-8-(4-fluoro-3-hydroxyphenyl)-9-[6-(methyl{3-[(4,4,4-trifluorobutyl)sulphonyl]propyl}amino)hexyl]-6,7-dihydro-5H-benzo[7]annulen-3-ol] | – | – | 6
19 | CN(CCCCCCC1=C(c2ccc(F)c(O)c2)CCCc2cc(O)c(F)cc21)CCCCS(=O)(=O)CCCC(F)(F)F [Example 128, 2-Fluoro-8-(4-fluoro-3-hydroxyphenyl)-9-[6-(methyl{4-[(4,4,4-trifluorobutyl)sulphonyl]butyl}amino)hexyl]-6,7-dihydro-5H-benzo[7]annulen-3-ol] | – | – | 5
